This is an account of results in paper PMC5855594, “Poly-N-Acetyllactosamine Neo-Glycoproteins as Nanomolar Ligands of Human Galectin-3: Binding Kinetics and Modeling” (International Journal of Molecular Sciences, 2018).

In assay [1] the target is T1, human galectin-3 (Gal-3) (Homo sapiens, UniProt P17931).
T1 construct: made in house; host or cells: E. coli Rosetta (DE3) pLysS
The note with it: monovalent glycan; inhibition of Gal-3 binding to immobilized ASF; cited from earlier work.

Assay [2] has as its target T1, human galectin-3 (Gal-3). Nature of the assay: Direct ELISA: binding of soluble His-tagged Gal-3 to immobilized neo-glycoproteins or ASF. An excerpt: To determine the binding affinities between Gal-3 and neo-glycoproteins 9–16, the binding of soluble Gal-3 to the neo-glycoproteins immobilized in microplate wells was quantified by colorimetric immunodetection using anti-His antibody conjugated to horseradish peroxidase (HRP) (Figure 2a). Gal-3 bound neo-glycoproteins in a concentration-dependent manner and the interaction was exclusively conferred by glycan moieties since no binding of Gal-3 to the glycan-free BSA was detected. Apparent dissociation constants (Kd) of the Gal-3/neo-glycoprotein complexes were calculated from a non-linear regression of binding curves.
The affinity of Gal-3 for neo-glycoproteins 9–16 was determined using ELISA as reported previously. For the immobilization of the respective neo-glycoproteins or non-modified BSA (negative control), we used F16 Maxisorp NUNC-Immuno Modules (Thermo Scientific, Roskilde, Denmark). Per well, an amount of 5 pmol was incubated overnight at a working concentration of 0.1 µM (PBS). Then the wells were blocked with bovine serum albumin (2% w/v) diluted in PBS (1 h, room temperature). […] The binding signal of bound galectin was measured with a spectrophotometer (Spectra Max Plus, Molecular Devices, Sunnyvale, CA, USA) at an optical density of 450 nm. Obtained data were analyzed using SigmaPlot 10 software (Systat Software GmbH, Erkrath, Germany).

The target in assay [3] is T2, Gal-3-AVI (Homo sapiens, UniProt P17931).
T2 construct: made in house; host or cells: E. coli BL21 (λDE3), co-expressed with BirA
Briefly: SPR with biotinylated Gal-3-AVI captured on neutravidin chip, neo-glycoproteins as analytes. The format is binding. The method, then:
For SPR analysis, the biotinylated Gal-3-AVI was captured on a neutravidin-coated sensor chip, and the binding of serially diluted neo-glycoproteins 9–16 to immobilized Gal-3-AVI was analyzed. Three coupling concentrations of Gal-3-AVI were tested, so that the effect of mass transfer and the non-specific binding were minimized. As a result, the coupling level of 250 relative units (RU) along with the flow rate of 30 µL/min gave the optimum conditions and these parameters were used for the subsequent experiments.
Figure 4 SPR kinetic binding analysis of the interactions between neo-glycoproteins 9–16 and immobilized Gal-3-AVI. The neo-glycoproteins at indicated concentrations were injected in parallel over the neutravidin-coated sensor chip coated with the biotinylated Gal-3-AVI at a flow rate of 30 μL/min. The kinetic data were globally fitted by using a 1:1 Langmuir binding model. The fitted curves are superimposed as thin black lines on top of the sensograms. BSA, bovine serum albumin; rel., relative.
SPR measurements were performed at 25 °C using a set of sensor chips (GLC, NLC, HTE) mounted on a ProteOn XPR36 Protein Interaction Array System (Bio-Rad, Hercules, CA, USA ) as described previously. Briefly, Gal-3-AVI protein was diluted to a final concentration of 5 µg·mL^−1 in PBS and captured on a neutravidin-coated NLC sensor chip (Bio-Rad) at a flow rate of 30 µL·min^−1. Neo-glycoproteins 9–16, used here as analytes, were serially diluted in the running buffer (PBS supplemented with 0.005% Tween 20), and injected in parallel over the immobilized Gal-3-AVI at a flow rate of 30 µL·min^−1. The Gal-3-AVI surface was regenerated by a washing step with 50 mM HCl for 60 s. For the reversed experimental setup, the neo-glycoproteins 9–16 were immobilized on the GLC sensor chip by amine coupling chemistry and serial dilutions of Gal-3 were injected over the sensor surface. […] The equilibrium dissociation constant, KD, was determined as a ratio between the dissociation and association rate constants: KD=kd/ka

Assay [4] addresses T2, Gal-3-AVI. Briefly: Direct ELISA with Gal-3-AVI construct. Format: binding. To be noted: read-out: Kd app, direct ELISA. An excerpt:
To overcome the difficulties with Gal-3 immobilization, we prepared a biotinylated version of Gal-3 through in vivo biotinylation of an AviTag peptide that was genetically fused to the N-terminus of Gal-3 (Gal-3-AVI) (Figure 3). The AviTag is a specific 15-amino acid peptide sequence ([…]) that directs a highly targeted enzymatic conjugation of a single biotin molecule to the specific lysine (K) residue within the AviTag sequence using biotin ligase (BirA). In contrast to chemical biotinylation, which usually generates heterogeneous products with impaired function, the co-translational biotinylation of the AviTag peptide is site specific and provides a highly homogeneous protein preparation. Moreover, the N-terminal localization of the AviTag peptide provides a favorable orientation of Gal-3-AVI on a streptavidin-coated surface, leaving the C-terminal carbohydrate-binding domain of Gal-3 freely accessible for binding interactions.
Table S1. Comparison of binding affinities of His6-tag Gal-3 and Gal-3-AVI in ELISA assays Kd app [µM], direct ELISA IC50 glycan [µM], competitive ELISA […]
Figure S7. SPR kinetic binding analysis of the interactions between asialofetuin (ASF) and immobilized Gal-3-AVI. ASF was injected in parallel over the neutravidin-coated sensor chip coated with the biotinylated Gal-3-AVI at a flow rate of 30 µl/min. […]

In assay [5] the target is T1, human galectin-3 (Gal-3). Briefly: Competitive ELISA: inhibition of His-tagged Gal-3 binding to immobilized asialofetuin (ASF). To be noted: for increase of inhibitory potency compared to lactose (times): competitive ELISA; for IC50: read-out: IC50 Glycan. The method, then: To assess the inhibitory potential of glycans 1–8 and the respective neo-glycoproteins 9–16 towards Gal-3, their capacity to inhibit the binding of Gal-3 to immobilized asialofetuin (ASF) was determined by competitive ELISA inhibition analyses (Figure 2b). ASF is a multivalent glycoprotein presenting three triantennary N-glycans terminated with LacNAc, which is reported to interact with Gal-3. Here, Gal-3 was incubated with increasing concentrations of the glycans or neo-glycoproteins as competing ligands and the inhibition of Gal-3 binding to immobilized ASF was quantified by colorimetric immunodetection using anti-His antibody conjugated to HRP. […] The respective inhibition constants (IC50) were calculated from the non-linear regression of the sigmoidal inhibition curves and they are listed in Table 1.
In the competitive ELISA design, the F16 Maxisorp NUNC-Immuno Modules (Thermo Scientific, Roskilde, Denmark) were coated overnight with ASF (Sigma Aldrich, Steinheim, Germany; 0.1 µM in PBS, 50 µL, 5 pmol per well) and blocked with BSA (2% w/v) diluted in PBS (1 h, room temperature). […] Detection of bound Gal-3 and data analysis were performed as described above.

For assay [6], the target named is T2, Gal-3-AVI. Briefly: Competitive ELISA with Gal-3-AVI construct. To be noted: read-out: IC50 glycan, competitive ELISA. Format: binding.
Where [7] appears, read: immobilized Gal-3-AVI, 1:1 Langmuir model, 25 °C.

Read-outs that look alike come from different tables or passages of the source.

T2 sequence (P17931 whole entry): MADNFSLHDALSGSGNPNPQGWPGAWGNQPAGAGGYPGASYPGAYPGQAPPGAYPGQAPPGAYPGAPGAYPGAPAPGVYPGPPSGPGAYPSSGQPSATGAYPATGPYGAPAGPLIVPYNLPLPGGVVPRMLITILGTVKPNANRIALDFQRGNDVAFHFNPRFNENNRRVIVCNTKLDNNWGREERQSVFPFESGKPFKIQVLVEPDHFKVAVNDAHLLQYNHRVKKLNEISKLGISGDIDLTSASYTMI
T1 sequence (P17931 whole entry): as above

For `CC(=O)N[C@@H]1[C@@H](O)[C@H](O[C@@H]2O[C@H](CO)[C@H](O)[C@H](O[C@@H]3O[C@H](CO)[C@@H](O[C@@H]4O[C@H](CO)[C@H](O)[C@H](O[C@@H]5O[C@H](CO)[C@@H](O[C@@H]6O[C@H](CO)[C@H](O)[C@H](O)[C@H]6O)[C@H](O)[C@H]5NC(C)=O)[C@H]4O)[C@H](O)[C@H]3NC(C)=O)[C@H]2O)[C@@H](CO)O[C@H]1NC(=S)NCCNC(=O)OC(C)(C)C` [glycan 6, LacNAc-LacNAc-LacNAc], in assay [1], the IC50 was 20.1 ± 0.1 µM. Turning to bovine serum albumin [BSA], in assay [2] (negative control, immobilized), the “binding of Gal-3 in direct ELISA” value was “no binding”. For the same compound, the “SPR response / binding to immobilized Gal-3-AVI” value in assay [3] (nanomolar concentrations) is listed as “no binding”. As to Asialofetuin [ASF], the Kd in assay [2] (His6-tag Gal-3, read-out: Kd app, direct ELISA) stood at 5 ± 1 µM; in assay [4] it was 4.8 ± 0.2 µM. Also, the ka entry in assay [3] (setting [7]) is given as “(4.8 ± 1.9) × 10^4 M^−1·s^−1”. The kd result in assay [3] (setting [7]) is on record as “(4.0 ± 1.7) × 10^−4 s^−1”. With `CC(=O)N[C@@H]1[C@@H](O)[C@H](O[C@@H]2O[C@H](CO)[C@H](O)[C@H](O)[C@H]2O)[C@@H](CO)O[C@H]1NC(=S)NCCNC(=O)OC(C)(C)C` [glycan 2], in assay [5], the “increase of inhibitory potency compared to lactose (times)” value was “up to 4” and the IC50 was 36 ± 1 µM. Regarding `CC(=O)N[C@@H]1[C@@H](O)[C@H](O[C@@H]2O[C@H](CO)[C@H](O)[C@H](O[C@@H]3O[C@H](CO)[C@@H](O[C@@H]4O[C@H](CO)[C@H](O)[C@H](O[C@@H]5O[C@H](CO)[C@@H](O[C@@H]6O[C@H](CO)[C@H](O)[C@H](O)[C@H]6NC(C)=O)[C@H](O)[C@H]5NC(C)=O)[C@H]4O)[C@H](O)[C@H]3NC(C)=O)[C@H]2O)[C@@H](CO)O[C@H]1NC(=S)NCCNC(=O)OC(C)(C)C` [glycan 5, LacdiNAc-LacNAc-LacNAc], the IC50 in assay [1] is 6.2 ± 0.02 µM. On to `CC(=O)N[C@@H]1[C@@H](O)[C@H](O[C@@H]2O[C@H](CO)[C@H](O)[C@H](O[C@@H]3O[C@H](CO)[C@@H](O[C@@H]4O[C@H](CO)[C@H](O)[C@H](O[C@@H]5O[C@H](CO)[C@@H](O)[C@H](O[C@@H]6O[C@H](CO)[C@H](O)[C@H](O)[C@H]6O)[C@H]5NC(C)=O)[C@H]4O)[C@H](O)[C@H]3NC(C)=O)[C@H]2O)[C@@H](CO)O[C@H]1NC(=S)NCCNC(=O)OC(C)(C)C` [glycan 7, LacNAc type 1-LacNAc-LacNAc], for which the IC50 in assay [1] is 12.5 ± 0.1 µM. As for `CC(=O)N[C@@H]1[C@@H](O)[C@H](O[C@@H]2O[C@H](CO)[C@H](O)[C@H](O[C@@H]3O[C@H](CO)[C@@H](O[C@@H]4O[C@H](CO)[C@H](O)[C@H](O)[C@H]4O)[C@H](O)[C@H]3NC(C)=O)[C@H]2O)[C@@H](CO)O[C@H]1NC(=S)NCCNC(=O)OC(C)(C)C` [glycan 4, LacNAc-LacNAc], the IC50 in assay [1] is 13 ± 3 µM. With `CC(=O)N[C@@H]1[C@@H](O)[C@H](O[C@@H]2O[C@H](CO)[C@H](O)[C@H](O)[C@H]2NC(C)=O)[C@@H](CO)O[C@H]1NC(=S)NCCNC(=O)OC(C)(C)C` [glycan 1, LacdiNAc], in assay [5], the “increase of inhibitory potency compared to lactose (times)” value is given as “up to 4” and the IC50 worked out at 42 ± 2 µM. The IC50 in assay [6] was 43 ± 4 µM. `CC(=O)N[C@@H]1[C@@H](O)[C@H](O[C@@H]2O[C@H](CO)[C@H](O)[C@H](O[C@@H]3O[C@H](CO)[C@@H](O[C@@H]4O[C@H](CO)[C@H](O)[C@H](O)[C@H]4NC(C)=O)[C@H](O)[C@H]3NC(C)=O)[C@H]2O)[C@@H](CO)O[C@H]1NC(=S)NCCNC(=O)OC(C)(C)C` [glycan 3, LacdiNAc-LacNAc]: in assay [1], the IC50 is 7 ± 1 µM. On to `CC(=O)N[C@@H]1[C@@H](O)[C@H](O[C@@H]2O[C@H](CO)[C@H](O)[C@H](O[C@@H]3O[C@H](CO)[C@@H](O[C@@H]4O[C@H](CO)[C@H](O)[C@H](O[C@@H]5O[C@H](CO)[C@@H](O[C@@H]6O[C@H](CO)[C@H](O)[C@H](O[C@H]7O[C@H](CO)[C@H](O)[C@H](O)[C@H]7O)[C@H]6O)[C@H](O)[C@H]5NC(C)=O)[C@H]4O)[C@H](O)[C@H]3NC(C)=O)[C@H]2O)[C@@H](CO)O[C@H]1NC(=S)NCCNC(=O)OC(C)(C)C` [glycan 8, Galili-LacNAc-LacNAc], for which, in assay [1], the IC50 was 8.4 ± 0.1 µM.
